Key:
CEM cells = experiment: Combination index (median-effect) of bcl-x antisense with chemotherapeutic drugs in CEM cells; type: cell-based, human
Excerpt: To determine if synergy existed between the bcl-x and the chemotherapeutic drugs dexamethasone or doxorubicin, the median-effect principle of Chou (“The median-effect principle and the combination index for quantification of synergism and antagonism. In Synergism and Antagonism in Chemotherapy, T.-C. Chou and D. Rideout, eds., Academic Press, New York, pp. 61–102) was used to determine dose-effect parameters for the drugs individually and for the combinations of bcl-x antisense plus dexamethasone or bcl-x antisense plus doxorubicin. This method analyzes the shape of the drug dose-response curves for each drug, combination of drugs and quantitates synergism/antagonism at different concentrations. Median effect computer software (CalcuSyn for Windows, Biosoft, Ferguson, Mo.) was used to generate the combination index (CI), where a CI value of <1, =1, >1 indicates synergism (i.e., the effect of drug combination is greater than anticipated from the additive effect of the individual agents), additive effect, and antagonism, respectively.
Treatment of CEM cells with bcl-x antisense oligonucleotide makes the cells more sensitive to killing by doxorubicin or dexamethasone (FIGS. 9A–B). These, or similar drugs, are used frequently for acute lymphocytic leukemia treatment. The use of any of these therapeutic agents in combination with one or more antisense oligonucleotides to bcl-x is within the scope of the present invention. For these experiments, the CEM cells were electroporated with either the bcl-x antisense or control oligonucleotides, cultured for one day, then treated with the indicated concentrations of drug. […] A CI of <0.3 is classified as a strong degree of synergism, and 0.3 to 0.7 is classified as synergism. […] For the doses tested of doxorubicin, the CI ranged from 0.7 to 1.3.

bcl-xl protein = experiment: Immunoblot of bcl-xl protein in CEM cells; type: cell-based, human
Experimental: (§1) Postnuclear detergent lysates were prepared as described by Reed et al. (Cancer Res., 1991, 51, 6529–6538), and the protein concentration was determined using a Bradford method protein assay kit (Bio-Rad, Hercules, Calif.). Protein (20 μg) was loaded in each lane, followed by electrophoresis on a 12% sodium dodecyl sulfate-polyacrylamide gel, followed by immunoblotting (Winston et al., 1993). The primary antibody was a 0.4 μg/ml dilution of the mouse monoclonal anti-human bcl-2 (clone 124, Dako, Carpinteria, Calif.), a 4.0 μg/ml dilution of the rabbit polyclonal anti-human bcl-xs/l (Dako), or a 0.3 μg/ml dilution of rabbit polyclonal anti-human Bax (N-20, Santa Cruz Biotechnology, Santa Cruz, Calif.). For development and STORM fluorescent imaging, the secondary antibody was peroxidase-conjugated sheep anti-mouse or donkey anti-rabbit (Amersham, Little Chalfort, UK). Chemiluminescence imaging and quantification were preformed using the STORM instrument and ImageQuant software (Molecular Dynamics, Sunnyvale, Calif.).

bcl-2 protein = experiment: Immunoblot of bcl-2 protein in CEM cells; type: cell-based, human; conditions: even at the highest concentration
Experimental: as §1

human bcl-x mRNA = experiment: Northern blot analysis of bcl-x mRNA levels in A549 cells; type: cell-based
Experimental: Eighteen hours after antisense treatment, cell monolayers were washed twice with cold PBS and lysed in 1 mL RNAZOL™ (TEL-TEST “B” Inc., Friendswood, Tex.). Total RNA was prepared following manufacturer's recommended protocols. Twenty micrograms of total RNA was fractionated by electrophoresis through 1.2% agarose gels containing 1.1% formaldehyde using a MOPS buffer system (AMRESCO, Inc. Solon, Ohio). RNA was transferred from the gel to HYBOND™-N+ nylon membranes (Amersham Pharmacia Biotech, Piscataway, N.J.) by overnight capillary transfer using a Northern/Southern Transfer buffer system (TEL-TEST “B” Inc., Friendswood, Tex.). RNA transfer was confirmed by UV visualization. Membranes were fixed by UV cross-linking using a STRATALINKER™ UV Crosslinker 2400 (Stratagene, Inc, La Jolla, Calif.).
Membranes were probed using QUICKHYB™ hybridization solution (Stratagene, La Jolla, Calif.) using manufacturer's recommendations for stringent conditions with an 822-base pair bcl-x specific probe prepared by PCR from bases 33–855 of human bcl-xl sequence (Boise et al., 1993, Cell 74:597–608; GenBank accession no. L20121). To normalize for variations in loading and transfer efficiency membranes were stripped and probed for glyceraldehyde-3-phosphate dehydrogenase (GAPDH) RNA (Clontech, Palo Alto, Calif.). Hybridized membranes were visualized and quantitated using a PHOSPHORIMAGER™ and IMAGEQUANT™ Software V3.3 (Molecular Dynamics, Sunnyvale, Calif.). Data was normalized to GAPDH levels in untreated controls.
Oligonucleotides were tested by Northern blot analysis as described in Example 14. Oligonucleotides were tested in A549 cells at a concentration of 400 nM. The results are Table 2:
Oligonucleotides were tested by Northern blot analysis as described in Example 14. Chimeric oligonucleotides were in A549 cells at a concentration of 200 nM. Where present, “N.D.” indicates “not determined”.

bcl-x protein = experiment: Western blot analysis of bcl-x protein levels in A549; type: cell-based, human
Experimental: Western blot analysis (immunoblot analysis) was carried out using standard methods. Generally, cells were harvested 16–20 hours after oligonucleotide treatment, washed once with PBS, suspended in Laemmli buffer (100 μl/well), boiled for 5 minutes and loaded on a 16% SDS-PAGE gel. Gels were run for 1.5 hours at 150 V, and transferred to membrane for western blotting. Appropriate primary antibody directed to bcl-x was used, with a radiolabelled or fluorescently labeled secondary antibody directed against the primary antibody species. Bands were visualized using a PHOSPHORIMAGER™ (Molecular Dynamics, Sunnyvale Calif.).
ISIS 15999 and 16009 were tested for the ability to reduce bcl-x protein levels in A549.

Question: “TCCCGGTTGCTCTGAGACAT (5-10-5 2'-MOE gapmer, phosphorothioate, further chemistry not given here) [ISIS 15999]” was tested. Which “combination index (CI)” value (CEM cells; with dexamethasone, three highest doses) did it give?
Answer: < 0.3

Question: And the “combination index (CI)” value (CEM cells; with dexamethasone, two lower doses)?
Answer: 0.3 to 0.4

Question: And the “combination index (CI)” value (CEM cells; with doxorubicin, doses tested)?
Answer: 0.7 to 1.3

Question: And the “level of bcl-xl protein” value (bcl-xl protein)?
Answer: dose dependent decrease

Question: What about the bcl-2 protein levels (bcl-2 protein) of the same sequence?
Answer: did not decrease

Question: What about the “reduction of bcl-x mRNA levels” value (human bcl-x mRNA; 25 nM (lowest dose tested)) of the same sequence?
Answer: approximately 70%

Question: And the “inhibition of bcl-x mRNA” value (human bcl-x mRNA; 50 nM to 200 nM)?
Answer: greater than 90%

Question: And the “bcl-x mRNA at the highest dose” value (human bcl-x mRNA; 200 nM)?
Answer: nearly complete ablation

Question: What about the IC50 (human bcl-x mRNA; dose-response, Northern blot) of the same sequence?
Answer: < 25 nM

Question: What about the bcl-x protein levels (bcl-x protein) of the same sequence?
Answer: reduce bcl-x protein levels in a dose-dependent manner
